{"source": "patent US12329799B2", "about": "“Peptidyl inhibitors of calcineurin-NFAT interaction” (Ohio State Innovation Foundation, priority 2018, dated 2025)", "key": {"[1]": {"system": "LPS-induced TNFα production in lung macrophages", "assay": "LPS-induced TNFα secretion by lung macrophages (ELISA)", "type": "cell-based, mouse", "source_text": "Cell supernatants were collected and analyzed for TNFα levels by R&D systems TNFα ELISA kit."}, "[2]": {"system": "NFATc3 nuclear translocation", "assay": "LPS-induced NFATc3 nuclear translocation in macrophages (immunofluorescence)", "type": "cell-based, mouse", "settings": "1 μM peptide pretreatment, LPS stimulation", "procedure": "Endotoxin lipopolysaccharide (LPS) was previously shown to induce NFATc3 translocation from the cytoplasm into the nucleus and upregulation of NFATc3 target genes in macrophages.\nImmunofluorescence. Mouse BMDM were pretreated with 1 μM of control CPP9 (SEQ ID NO: 76)-VAVAA (SEQ ID NO: 224)-Biotin or CNI93-Biotin peptides for 5 min and stimulated with PBS or LPS (100 ng/mL) for 1 h. Treated cells were washed, fixed in 4% paraformaldehyde and incubated sequentially with anti-rabbit NFATc3, Anti-rabbit Alexa Fluor™ 488 Conjugate and Alexa Fluor™ 594 Streptavidin. Cells were washed three times in 1×PBS after incubation with each antibody."}, "[3]": {"system": "H441 (lung cancer) cells", "assay": "MTT assay, H441", "type": "cell-based", "settings": "72 h", "procedure": "MTT Proliferation Assay. HeLa, Jurkat-Lucia, or H441 cells were seeded into a 96-well microplate (5000 cells per well) in full growth media and incubated at 37° C. overnight. A serial dilution of each compound was prepared in DPBS and then added to each well. The treated cells were incubated at 37° C. with 5% CO2 for 72 h. Following compound treatment, 10 μL of MTT stock solution was added to each well. After an additional 4 h at 37° C., 100 μL of SDS-HCl solubilizing solution was added to each well and the plate was returned to the incubator overnight at 37° C. A Tecan Infinite M1000 Pro microplate reader was used the following morning to measure the absorbance of the formazan product at 565 nm."}, "[4]": {"system": "LPS-induced acute lung injury (ALI) in mice", "assay": "LPS sepsis-induced acute lung injury, intranasal CNI93", "type": "in vivo, mouse", "settings": "i.n. 10 mg/kg", "procedure": "As expected, LPS challenge of CPP9-VAVAA (SEQ ID NO: 224) treated mice increased the total protein in BALF by ˜2-fold and TNFα and IL-6 levels in BALF (FIGS. 11A, 11B, and 11D, respectively).\nMouse models of LPS sepsis. Mouse LPS sepsis-induced acute lung injury models were established by intraperitoneal injection of LPS at 10 mg/kg body weight. Acute lung injury was assessed by measuring secretion of TNFα, IL6 in to broncho alveolar lavage fluid (BALF), plasma levels of IL6 and TNFα, and neutrophilic infiltration. Pulmonary edema was measured by increased protein levels in BALF. Neutrophilic infiltration in to bronchoalveolar lavage fluid is determined by Hema 3.0 staining and number of neutrophils in BALF is quantitated.\nNeutrophilic inflammation. BALF fluid from different treatment groups of mice was used to prepare Cytospin slides, stained using Hema 3 and number of neutrophils and macrophages per field view of microscopic view were counted and differences among groups calculated."}, "[5]": {"system": "LPS-induced TNFα and IL-6 secretion, mouse total lung macrophages", "assay": "Inhibition of TNFα and IL-6 secretion by macrophage", "type": "cell-based", "settings": "100 nM, 1 μM, or 10 μM for 2 h, then LPS 6 h", "procedure": "Mouse total lung macrophages were obtained from 5 mice and pooled. Macrophages were pretreated with 100 nM, 1 μM, or 10 μM inhibitor for 2 h and stimulated with LPS ([…]) or PBS for 6 h. Cell supernatants were collected and analyzed for TNFα levels (FIG. 20A) or IL-6 levels (FIG. 20B) by R&D Systems TNFα ELISA kit and R&D Systems IL-6 ELISA kit."}, "[6]": {"system": "NFAT-mediated luciferase expression in Jurkat cells", "assay": "NFAT luciferase assay in Jurkat cells", "type": "cell-based", "settings": "10 μM, Jurkat cells", "procedure": "In a separate experiment, CNI93 was also tested against Jurkat cells expressing a luciferase gene under the transcriptional control of NFAT.\nNFAT Luciferase Assay. Jurkat-Lucia cells maintained in RPMI-1640 supplemented with 10% FBS, 1% penicillin/streptomycin (v/v/v) and 100 μg/mL normocin were harvested after a passage with 50 μg/mL selective antibiotic Zeocin at 300×RCF for 5 min. Cells were resuspended in warm RPMI-1640 with antibiotics but without FBS to a final density of 2×10^6 cells/mL and seeded into white-on-white cell-culture treated 96-well plates. To each well was added 10 μL of DPBS containing compounds which dilute to the desired concentrations followed by 170 μL of cell suspension […] and incubated at 37° C. for 2 h. The cells were induced by treatment with 50 ng/mL PMA and 3 μg/mL ionomycin, Ca^2+ salt in FBS to achieve a final FBS concentration of 10% in each well (with FBS only as control). The plate was incubated for an additional 4 h at 37° C., when 20 μL of each sample was withdrawn and mixed with 50 μL of Quanti-Luc assay solution. The luminescence of the mixture was immediately measured on a Tecan Infinite M1000 plate reader."}, "[7]": {"molecular_target": "T1, Calcineurin (GST-CN) (Homo sapiens, UniProt Q08209)", "T1 construct": "made in house; host or cells: E. coli BL21", "T1 sequence (Q08209 2-347 limits assumed)": "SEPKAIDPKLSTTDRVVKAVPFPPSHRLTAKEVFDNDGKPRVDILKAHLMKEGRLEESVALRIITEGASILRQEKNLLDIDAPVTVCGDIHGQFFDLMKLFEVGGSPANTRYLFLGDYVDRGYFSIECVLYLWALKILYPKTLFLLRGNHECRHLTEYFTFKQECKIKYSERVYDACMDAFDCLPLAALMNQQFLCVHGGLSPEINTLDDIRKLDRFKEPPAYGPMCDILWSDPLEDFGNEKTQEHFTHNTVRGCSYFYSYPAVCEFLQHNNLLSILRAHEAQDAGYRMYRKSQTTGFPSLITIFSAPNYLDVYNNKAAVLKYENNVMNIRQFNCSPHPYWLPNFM", "assay": "Direct binding of FITC-labeled peptides to CN by fluorescence anisotropy/polarization", "procedure": "To facilitate concentration determination and binding analysis by fluorescence anisotropy (FA), a dipeptide Tyr-Lys was added to the C-terminus of ZIZIT (SEQ ID NO:1) and the lysine side chain was labeled with fluorescein isothiocyanate (FITC). The resulting peptide,\nFluorescence Polarization. Fluorescence polarization (FP) experiments were carried out to measure binding affinity in both direct and competitive binding experiments using GST-CN and peptides prepared as mentioned previously. For direct binding, 50 nM FITC-labeled peptide was prepared in PBS, pH 7.4 containing 5 mM DTT and 0.01% Triton-X100 and then added to GST-CN diluted in PBS containing 0.01% Triton-X100. Solutions were incubated for 1 h at RT with gentle mixing and then pipetted into black 384-well microplates. Fluorescence polarization was measured on a TECAN Infinite M1000 plate reader and titration curves were fitted using both KaelidaGraph v 3.6 and GraphPad PRISM to the equation:\n[formula] • where FP is the measured fluorescence polarization, Amin is the minimum FP value, Amax is the maximum FP signal, Qb is the quantum yield of the bound fluorophore, Qf is the quantum yield of the free fluorophore, L is the ligand concentration, KD is the dissociation constant and x is the protein concentration."}}, "note": "Positions of bridges follow the written chain, without caps; N, C: chain ends. Non-standard residues stand in square brackets, D forms with d. Residues, ends and D or L forms follow the SMILES beside them. Chains are numbered I, II in the order given. *: point of attachment. Benzoyl(2,3-Cl2) = O=C(c1cccc(Cl)c1Cl)*; 2Nal = N[C@@H](Cc1ccc2ccccc2c1)C(=O)O; Tle = CC(C)(C)[C@H](N)C(=O)O; βAla = NCCC(=O)O"}
{"smiles": "CC[C@H](C)[C@H](NC(=O)[C@@H](NC(=O)c1cccc(Cl)c1Cl)C(C)(C)C)C(=O)N[C@H](C(=O)N[C@H](C(=O)N[C@H](C(=O)N[C@@H](CCC(N)=O)C(=O)N[C@@H](Cc1c[nH]cn1)C(=O)N[C@H](CC(C)C)C(=O)N[C@@H](CO)C(=O)NCCC(=O)N[C@@H](CCCCNC(=O)CC[C@@H]1NC(=O)[C@@H](CCCNC(=N)N)NC(=O)[C@H](CCCNC(=N)N)NC(=O)[C@@H](CCCNC(=N)N)NC(=O)[C@H](CCCNC(=N)N)NC(=O)[C@H](Cc2ccc3ccccc3c2)NC(=O)[C@@H](Cc2ccccc2)NC1=O)C(N)=O)[C@@H](C)O)[C@@H](C)CC)C(C)(C)C", "note": "[CNI93] (I: {Benzoyl(2,3-Cl2)}-[Tle]I[Tle]ITQH[dL]S[βAla]K-NH2 / II: cyclo([2Nal]R[dR]R[dR]E[dF]); amide I:11-II:6 (inferred); ring closure inferred)", "values": [{"measurement": "decrease of LPS-induced TNFα production", "setting": "[1]; dose-dependent, 100 nM-10 μM, LPS 100 ng/mL, 16 h", "result": "24-59%"}, {"measurement": "potency as immunosuppressant relative to CsA", "setting": "[1]; ex vivo assay", "result": "~10", "unit": "fold"}, {"measurement": "LPS-induced nuclear translocation of NFATc3", "setting": "[2]", "result": "completely blocked"}, {"measurement": "cytotoxicity", "setting": "[3]; H441, 25 μM", "result": "No significant cytotoxicity"}, {"measurement": "cell viability", "setting": "[3]; H441, 50 μM", "result": "Reduction in cell viability"}, {"measurement": "neutrophilic infiltration into the lungs", "setting": "[4]; 1 h before LPS i.p. 10 mg/kg", "result": "prevented"}, {"measurement": "protection from LPS-induced production of cytokines and protein leakage into BALF", "setting": "[4]; 1 h before LPS i.p. 10 mg/kg", "result": "almost completely protected"}, {"measurement": "decrease of plasma level of IL6", "setting": "[4]; LPS sepsis mice", "result": "~4", "unit": "fold"}, {"measurement": "decrease of plasma level of TNFα", "setting": "[4]; LPS sepsis mice", "result": "~4", "unit": "fold"}, {"measurement": "secreted amounts of TNFα and IL6", "setting": "[5]", "result": "dose-dependently reduced"}, {"measurement": "phorbol ester- and ionomycin-induced expression of luciferase", "setting": "[6]", "result": "potently inhibited"}, {"measurement": "lower CN-binding affinity relative to peptide 14", "setting": "[7]", "result": 8, "unit": "fold"}]}
